The structures appear in SMILES notation.

The text below walks through data of ChEMBL document CHEMBL1131344, “The synthesis of novel matrix metalloproteinase inhibitors employing the Ireland-Claisen rearrangement” (Bioorg Med Chem Lett, 1998).

The target of data set [1] is T1, Interstitial collagenase (Homo sapiens) (UniProt P03956).
T1 sequence (whole entry): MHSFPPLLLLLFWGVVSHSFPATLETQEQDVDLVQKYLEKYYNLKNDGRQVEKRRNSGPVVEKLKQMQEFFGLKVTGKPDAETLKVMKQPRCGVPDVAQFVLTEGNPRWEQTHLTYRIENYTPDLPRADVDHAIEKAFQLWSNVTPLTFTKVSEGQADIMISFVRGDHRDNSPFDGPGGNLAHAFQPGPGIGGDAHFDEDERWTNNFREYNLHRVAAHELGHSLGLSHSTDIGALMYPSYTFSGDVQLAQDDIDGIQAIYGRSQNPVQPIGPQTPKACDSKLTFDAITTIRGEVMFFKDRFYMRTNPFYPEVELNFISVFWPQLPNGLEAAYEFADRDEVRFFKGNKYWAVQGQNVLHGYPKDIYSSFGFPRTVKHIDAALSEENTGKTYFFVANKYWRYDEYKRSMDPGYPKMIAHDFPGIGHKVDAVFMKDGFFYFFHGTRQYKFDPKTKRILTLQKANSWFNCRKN
Nature of the data set: Inhibition of matrix metalloprotease-1 (HFC).

Data set [2] deals with Stromelysin-1 (Homo sapiens) (UniProt P08254). Nature of the data set: Inhibition of matrix metalloprotease-3 (Stromelysin-1).
In data set [3] the target is 72 kDa type IV collagenase (Homo sapiens) (UniProt P08253). Nature of the data set: Inhibition of matrix metalloprotease-2 (Gel.A).
Data set [4] in a line: Maximum concentration value was evaluated for high sustained blood levels in rat after 30 min of administration. Type of data set: ADME, organism-based.
Data set [5] is filed under the species Rattus norvegicus. Nature of the data set: Compound was tested for area under curve in rat. Format: ADME, organism-based. More on the design: concentration or dose not given beside the values. The note with it: in vivo.
Data set [6] deals with T2, Matrilysin (Homo sapiens) (UniProt P09237).
T2 sequence (whole entry): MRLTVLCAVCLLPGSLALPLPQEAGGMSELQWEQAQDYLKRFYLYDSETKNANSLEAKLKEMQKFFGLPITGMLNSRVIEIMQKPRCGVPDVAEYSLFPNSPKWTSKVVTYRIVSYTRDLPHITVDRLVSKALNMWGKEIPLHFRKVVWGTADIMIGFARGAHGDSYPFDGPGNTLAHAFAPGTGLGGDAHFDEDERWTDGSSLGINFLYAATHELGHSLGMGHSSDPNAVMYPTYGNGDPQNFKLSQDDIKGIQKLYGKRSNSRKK
Nature of the data set: Inhibition of matrix metalloprotease-7 (Matrilysin).

The nature of data set [7]: Maximum concentration value was evaluated for high sustained blood levels in rat after 1 hr of administration. Format: ADME, organism-based.
The test system of data set [8] is Rattus norvegicus. Nature of the data set: Compound was tested for inhibition of Tumor Necrosis Factor production in rat at a peroral dose of 2.5 mg/kg. Format: functional. The note with it: route oral.
Data set [9] relates to Rattus norvegicus. Nature of the data set: Compound was tested for inhibition of Tumor Necrosis Factor production in rat at a peroral dose of 5 mg/kg. Type of data set: functional. As to conditions: route oral.
Data set [10] has as its system Rattus norvegicus. Nature of the data set: Compound was tested for inhibition of Tumor Necrosis Factor production in rat at a peroral dose of 10 mg/kg. As to conditions: route oral. Type of data set: functional.
The nature of data set [11]: Maximum concentration value was evaluated for high sustained blood levels in rat after 2 hr of administration. Format: ADME, organism-based.

Chain of 72 kDa type IV collagenase (Homo sapiens) (P08253 110-660 limits assumed): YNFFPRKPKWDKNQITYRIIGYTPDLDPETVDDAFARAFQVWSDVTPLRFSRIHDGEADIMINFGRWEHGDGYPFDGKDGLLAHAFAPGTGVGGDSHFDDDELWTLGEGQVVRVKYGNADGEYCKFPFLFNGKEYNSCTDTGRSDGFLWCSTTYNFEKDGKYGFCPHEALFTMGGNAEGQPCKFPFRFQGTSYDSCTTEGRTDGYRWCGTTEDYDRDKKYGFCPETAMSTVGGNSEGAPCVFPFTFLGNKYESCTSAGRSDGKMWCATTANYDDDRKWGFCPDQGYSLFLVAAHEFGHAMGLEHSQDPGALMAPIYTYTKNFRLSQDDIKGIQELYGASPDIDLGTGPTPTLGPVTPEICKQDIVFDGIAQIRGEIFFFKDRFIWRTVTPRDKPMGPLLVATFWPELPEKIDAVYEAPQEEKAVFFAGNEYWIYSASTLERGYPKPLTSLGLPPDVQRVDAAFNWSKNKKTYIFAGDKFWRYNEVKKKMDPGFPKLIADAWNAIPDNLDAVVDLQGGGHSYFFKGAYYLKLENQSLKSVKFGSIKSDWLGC
Chain of Stromelysin-1 (Homo sapiens) (P08254 100-477 limits assumed): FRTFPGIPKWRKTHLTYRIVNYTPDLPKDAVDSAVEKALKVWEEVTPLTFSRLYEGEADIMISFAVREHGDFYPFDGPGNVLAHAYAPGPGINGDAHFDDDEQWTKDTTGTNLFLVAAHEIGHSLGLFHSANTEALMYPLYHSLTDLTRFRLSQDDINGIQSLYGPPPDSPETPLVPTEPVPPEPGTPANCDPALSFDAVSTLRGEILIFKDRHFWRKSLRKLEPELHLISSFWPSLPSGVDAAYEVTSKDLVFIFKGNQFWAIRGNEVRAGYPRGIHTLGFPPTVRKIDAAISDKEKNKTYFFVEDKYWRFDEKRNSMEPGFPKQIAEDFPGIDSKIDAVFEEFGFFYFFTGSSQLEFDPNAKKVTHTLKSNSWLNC

For `CC(C)CC(C(=O)N[C@H](C(=O)Nc1ccccn1)C(C)(C)C)C(C(=O)NO)C1CCCC1` (single isomer, unassigned; 12m), the Activity is 20 nM in data set [1], 50 nM in [2] and 100 nM in data set [3].
In the case of `CNC(=O)[C@@H](NC(=O)[C@H](CC(C)C)[C@@H](C(=O)NO)C(C)C)C(C)(C)C`, in data set [4], the Cmax (commonly the maximum level reached in the sampled fluid or tissue) worked out at 376 ng/mL. For the same compound, in data set [5], the AUC (commonly the area under the concentration-time curve, a measure of exposure) was 895 ng·h/mL. The Activity in data set [6] was 5 nM; in data set [1] it was 1 nM; in data set [2] it was 40 nM; in [3] it was 1 nM.
For `CNC(=O)[C@@H](NC(=O)[C@H](CC(C)C)[C@@H](C(=O)NO)C1CCN(C)CC1)C(C)(C)C`, the Activity in data set [6] came out at 200 nM; in [1], 30 nM; in data set [2] it was 500 nM; in [3], 3 nM.
`CNC(=O)[C@@H](NC(=O)[C@H](CC(C)C)[C@@H](C(=O)NO)C1CCSC1)C(C)(C)C` (stereo not given in full): the Activity stood at 4 nM in data set [6], 5 nM in data set [1], 40 nM in data set [2] and 5 nM in data set [3].
Turning to `CC(C)CC(C(=O)N[C@H](C(=O)Nc1ccccn1)C(C)(C)C)C(C(=O)NO)C1CCCCC1` (single isomer, unassigned), the Activity in data set [1] is 4 nM; in data set [2], 20 nM; in data set [3] it was 10 nM.
In [7], `CNC(=O)[C@@H](NC(=O)C(CC(C)C)C(C(=O)NO)C1CCCC1)C(C)(C)C` (single isomer, unassigned) yielded a Cmax of 336 ng/mL. Besides, the AUC in [5] is 2090 ng·h/mL. Besides, the Activity is 20 nM in data set [6], 4 nM in [1], 30 nM in data set [2] and 3 nM in data set [3]. Further, the inhibition in vivo (commonly how much of the control response was suppressed) at 2.5 mg/kg in [8] amounted to 94%. The compound further displayed an inhibition in vivo at 5 mg/kg in [9] of 92%. Moreover, the inhibition in vivo at 10 mg/kg in data set [10] came out at 98%.
Consider `CNC(=O)[C@@H](NC(=O)C(CC(C)C)C(O)C(=O)NO)C(C)(C)C` (single isomer, unassigned), for which the Activity in [6] stood at 20 nM; in [1], 5 nM; in data set [2] it was 200 nM; in data set [3], 6 nM. For the same compound, at 2.5 mg/kg the inhibition in vivo in data set [8] was 11%. This compound also yielded an inhibition in vivo at 5 mg/kg in data set [9] of 50%. Moreover, the inhibition in vivo at 10 mg/kg in data set [10] turned out to be 69%.
For the compound `CNC(=O)[C@@H](NC(=O)C(CC(C)C)C(C(=O)NO)C1CCC(C(C)(C)C)CC1)C(C)(C)C` (single isomer, unassigned), the Activity is 50 nM in data set [6], 40 nM in data set [1], 100 nM in [2] and 30 nM in data set [3].
In the same order, the values of `CNC(=O)[C@@H](NC(=O)[C@H](CC(C)C)[C@@H](C(=O)NO)C1CCC(C)CC1)C(C)(C)C` (stereo not given in full) are 7 nM, 4 nM, 40 nM and 9 nM.
In the same order, the values of `CC(C)CC(C(=O)N[C@H](C(=O)Nc1ccccn1)C(C)(C)C)C(C(=O)NO)C1CCCC1` (single isomer, unassigned; 12j) [listing 1 of 2 here] are 3 nM, 3 nM, 20 nM and 30 nM.
Turning to `CNC(=O)[C@@H](NC(=O)C(CC(C)C)C(C(=O)NO)C1CCC1)C(C)(C)C` (single isomer, unassigned), the Activity came to 20 nM in data set [6], 3 nM in [1], 50 nM in [2] and 2 nM in [3].
`CNC(=O)[C@@H](NC(=O)C(CC(C)C)C(C(=O)NO)C1CCCCC1)C(C)(C)C` (single isomer, unassigned) displayed a Cmax in [11] of 9.75 ng/mL. This compound gave an AUC in [5] of 155 ng·h/mL. The Activity in data set [6] came to 20 nM; in data set [1], 4 nM; in data set [2], 30 nM; in data set [3] it was 10 nM.
Compound `CC(C)CC(C(=O)N[C@H](C(=O)Nc1ccccn1)C(C)(C)C)C(C(=O)NO)C1CCCC1` (single isomer, unassigned; 12j) [listing 2 of 2 here] gave a Cmax in data set [11] of 70.7 ng/mL. In data set [5], this compound had an AUC of 899 ng·h/mL.
Regarding `CC(C)C[C@@H](C(=O)N[C@H](C(=O)Nc1ccccn1)C(C)(C)C)[C@@H](C(=O)NO)C1CCC(C)CC1` (stereo not given in full), the Activity in data set [6] is 3 nM; in data set [1] it was 5 nM; in [2], 20 nM; in data set [3] it was 40 nM.
In turn, `CNC(=O)[C@@H](NC(=O)C(CC(C)C)C(C(=O)NO)C1CC1)C(C)(C)C` (single isomer, unassigned) had a Cmax in data set [4] of 106 ng/mL. The same compound displayed an AUC in data set [5] of 1020 ng·h/mL. For the same compound, the Activity in [6] is 200 nM; in data set [1], 20 nM; in data set [2], 300 nM; in [3] it was 100 nM.
